Data published in article PMC3715890, “A Cyclic Peptide Inhibitor of HIF-1 Heterodimerization That Inhibits Hypoxia Signaling in Cancer Cells” (Journal of the American Chemical Society, 2013).
Entries after “also recorded” stand apart in the source; their conditions may differ.

Tests used:
[1] = system: U2OS cells; conditions: 100 μM, hypoxia 24 h
[2] = system: MCF-7 cells; conditions: MCF-7, 100 μM, hypoxia 24 h
[3] = biological target: T1, His-HIF-1α1–350 with GST-HIF-1β1–474 (Homo sapiens, UniProt Q16665); assay: ELISA of HIF-1 dimerization; type: biochemical; conditions: 10 nM to 500 μM, pH 7.5, 30 min preincubation, room temperature, absorbance 450 nm, read-out: IC50, disruption of HIF-1 dimerization
T1 construct: heterodimerization of His-HIF-1α1–350 with GST-HIF-1β1–474 analyzed by ELISA; made in house; host or cells: E. coli BL21(DE3)
Description: We next probed the effect of cyclo-CLLFVY on the interaction of HIF-1α with HIF-1β in vitro. […] Unfortunately, the positively charged Tat-tag of P1 is incompatible with EMSA (interferes with the bandshift of DNA). […] To determine the HIF-1-specificity of cyclo-CLLFVY, we assessed its ability to disrupt HIF-2 dimerization by ELISA. Recombinant His-HIF-2α1–351 was produced and purified, and shown to form functional heterodimers with GST-HIF-1β1–474 by EMSA (Figure S5B).
HIF-1β1-474, *please note that isoform 3 of HIF-1β was used). The standard protocol for protein expression was followed. Briefly, a 1 % culture in LB was incubated at 37 °C with shaking until OD600 of 0.6 was reached. 0.1 mM IPTG was added and the liquid culture incubated with shaking at 18 °C overnight. Cell pellets were suspended in MHW buffer9 (approximately 4 ml buffer per 1 g cell pellet). Lysozyme (100 µg/ml) was added to the lysate and the solution was incubated with shaking for 20 min at 5 °C. […]
glycerol) was added to individual wells of a Pierce Ni2+-coated 96-well plate (Thermo Scientific, catalogue no. […] The stated quantity of inhibitor (P1 or P2) was added as a solution in 100 µL of buffer to the desired wells, and the plate incubated at room temperature for 30 minutes. […]

[4] = system: MCF-7 cells; assay: CyQUANT cell proliferation assay, MCF-7; type: cell-based; conditions: 100 μM, 72 h
Method: Sulforhodamine B cytotoxicity assay […]
incubated in hypoxia for 24h.
O.D. value of the experimental set.
CyQUANT cell proliferation assay
The cells were incubated for 5 hours and then treated with Tamoxifen or P1. After 24, 48 or 72 hours, the media was […]
C35006) following the manufacturers instructions. Fluorescence measurements were […]
Workman, P.; Ashcroft, M. Cancer Res 2005, 65, 4918.

[5] = system: HIF-2; conditions: cited from earlier work
Description: (§1) Inhibition of HIF-1 has long been known to hold much potential for cancer therapy;[14] there are multiple possible points for therapeutic intervention in the hypoxia response network, and molecules that inhibit various components of this diverse pathway have been reported,[15]−[22] but the absolute requirement for the dimerization of HIF-1α and HIF-1β for DNA binding and transcription activity of the HIF-1 complex makes this protein–protein interaction a seemingly optimal point of interception. Several high-throughput screens have been conducted in the effort to identify HIF-1 inhibitors,[15], ...

[6] = system: HIF-1; conditions: cited from earlier work
Description: as §1

[7] = system: HIF-2α PAS-B; conditions: cited from earlier work
Description: (§2) A homology model of HIF-1α PAS-B mapped onto the NMR s ...

[8] = biological target: T2, PAS-B domain of HIF-1α (Homo sapiens, UniProt Q16665); conditions: cited from earlier work
T2 construct: Per-ARNT-Sim-B (PAS-B, amino acids 235–350) domains; His (N); made in house; host or cells: E. coli BL21(DE3)
Description: as §2

Compound | SRB cytotoxicity [1] | SRB cytotoxicity [2] | IC50 [3] [nM] | viability / proliferation of MCF-7 cells [4] | inhibition of HIF-2 [5] | inhibition of HIF-1 [6] | targeting of PAS-B domain of HIF-2α [7] | targeting of PAS-B domain of HIF-1α [8]
CC(C)C[C@@H]1NC(=O)[C@H](CSSC[C@H](N)C(=O)NCC(=O)N[C@@H](CCCNC(=N)N)C(=O)N[C@@H](CCCCN)C(=O)N[C@@H](CCCCN)C(=O)N[C@@H](CCCNC(=N)N)C(=O)N[C@@H](CCCNC(=N)N)C(=O)N[C@@H](CCC(N)=O)C(=O)N[C@@H](CCCNC(=N)N)C(=O)N[C@@H](CCCNC(=N)N)C(=O)N[C@@H](CCCNC(=N)N)C(=O)N2CCC[C@H]2C(=O)N2CCC[C@H]2C(=O)N[C@@H](CCC(N)=O)C(=O)O)NC(=O)[C@H](Cc2ccc(O)cc2)NC(=O)[C@H](C(C)C)NC(=O)[C@H](Cc2ccccc2)NC(=O)[C@H](CC(C)C)NC1=O [P1, Tat-cyclo-CLLFVY] | not cytotoxic | not cytotoxic | 1300 | did not affect the viability of MCF-7 cells; also recorded: no effect on MCF-7 proliferation |  |  |  | 
acriflavine |  |  |  |  | nonselectively inhibits both HIF-1 and HIF-2 | nonselectively inhibits both HIF-1 and HIF-2 | targeted | targeted
